# Data taken from ChEMBL document CHEMBL3352707, “Antimycobacterial activity of natural products and synthetic agents: pyrrolodiquinolines and vermelhotin as anti-tubercular leads against clinical multidrug resistant isolates of Mycobacterium tuberculosis” (Eur J Med Chem, 2015).
# Key:
# [1] = system: Mycobacterium tuberculosis; experiment: Antimycobacterial activity against Mycobacterium tuberculosis H37Ra after 7 days by microplate Alamar blue assay; type: functional; settings: 168 h
# [2] = system: Mycobacterium tuberculosis; experiment: Antimycobacterial activity against Mycobacterium tuberculosis H37Rv after 7 days by microplate Alamar blue assay; type: functional; settings: 168 h
SMILES,MIC [1],MIC [2]
COc1ccc2oc(=O)c(C(C)=O)cc2c1,> 100 µg/mL,–
COc1ccc2cc(C(C)=O)c(=O)oc2c1,> 100 µg/mL,–
COC(=O)c1cc2ccccc2oc1=O,> 100 µg/mL,–
O=[N+]([O-])c1cccc2ncccc12,100 µg/mL,–
COC(=O)c1cc2c(ccc3ccccc32)oc1=O,50 µg/mL,–
CC(=O)c1cc2cccc(O)c2oc1=O,> 100 µg/mL,–
CC(=O)c1cc2cc(Cl)ccc2oc1=O,> 100 µg/mL,–
O=C(c1ccccc1)c1cc2cc(Cl)ccc2oc1=O,> 100 µg/mL,–
O=C(c1ccccc1)c1cc2c(ccc3ccccc32)oc1=O,> 100 µg/mL,–
C/C=C(\C)c1c(Br)c(O)c(C)c2c1Oc1cc(O)c(Br)c(C)c1C(=O)O2,50 µg/mL,–
O=C1CCCC2=C1C(c1c[nH]c3ccccc13)c1c(ccc3ccccc13)O2 (stereo unspecified),> 100 µg/mL,–
COCCC(=O)O,> 100 µg/mL,100 µg/mL
COC(=O)CCC[N+](=O)[O-],12.5 µg/mL,25 µg/mL
C/C=C(\C)c1c(Cl)c(OC)c(C)c2c1Oc1c(Cl)c(O)c(Cl)c(C)c1C(=O)O2,100 µg/mL,–
C/C=C(\C)c1c(Cl)c(OC)c(C)c(O)c1Oc1c(Cl)c(O)c(Cl)c(C)c1C(=O)OC,100 µg/mL,–
COC(=O)[C@@H]1CC[C@@]23COC(=O)C2=CCC[C@@H]3[C@@]1(C)CC(=O)c1ccoc1,> 100 µg/mL,–
COc1cc(O)cc2cc3c(c(O)c12)C(=O)C[C@@](C)(O)C3,25 µg/mL,–
C[C@@H]1CCN2C[C@@]34C[C@@]5(CC(=O)N(C)C5=O)C(C)(C)[C@H]3C[C@@]12C(=O)N4C,25 µg/mL,–
CC[C@@H](C)C[C@]1(C)C=C/C(=C2/C(=O)O[C@H](CC(=O)O)C2=O)O1,100 µg/mL,–
CC[C@H](C)[C@@H](O)[C@@H](C)C(=O)O[C@H]1CC(CC(=O)[C@H]2[C@H](C)CCC[C@@H]2O)=C(C)C(=O)[C@@]1(C)O,> 100 µg/mL,–
CC[C@H](C)[C@@H](O)[C@@H](C)C(=O)O[C@@]1(C)C(=O)c2c(cc(O)c3c2CCC[C@H]3C)C(C)(O)C1=O (stereo partly specified),> 100 µg/mL,–

SMILES,MIC [1],MIC [2]
C/C(=C\C=C\[C@H](O)[C@@H](C)O)[C@H](O)[C@H](C)C(=O)O[C@H]1C[C@H](C)C[C@@H]2C=C[C@H](C)[C@](C)(C(=O)CCO)[C@@H]12,> 100 µg/mL,–
C/C(=C\C=C\[C@H](O)[C@@H](C)O)[C@H](O)[C@H](C)C(=O)O[C@H]1C[C@H](C)C[C@@H]2C=C[C@H](C)[C@](C)(C(=O)C(O)CO)[C@@H]12 (stereo partly specified),> 100 µg/mL,–
C/C(=C\C=C\[C@H](O)[C@@H](C)O)[C@H](O)[C@H](C)C(=O)O[C@H]1C[C@H](CO)C[C@@H]2C=C[C@H](C)[C@](C)(C(=O)C(O)CO)[C@@H]12 (stereo partly specified),> 100 µg/mL,–
CC1=CC2=C(Cc3c(O)cc(C)oc3=O)C(=O)[C@](C)(O)[C@@H](O)C2=CO1,> 100 µg/mL,–
O=C1c2c(O)cc(O)c([C@@H]3C(=O)c4c(O)cc(O)cc4O[C@H]3c3ccc(O)cc3)c2O[C@H](c2ccc(O)cc2)[C@H]1O,> 100 µg/mL,–
O=C1NC(=O)/C(=C2/CCNC(=O)c3[nH]c(Br)cc32)N1,> 100 µg/mL,–
CN1c2cccc([N+](=O)[O-])c2C2CC1OC1=C2C(=O)CC(C)(C)C1 (stereo unspecified),> 100 µg/mL,–
CN1c2ccccc2C2CC1OC1=C2C(=O)CC(C)(C)C1 (stereo unspecified),> 100 µg/mL,–
CN1c2ccccc2C2CC1OC1=C2C(=O)CCC1 (stereo unspecified),> 100 µg/mL,–
CC(=O)c1cc2ccccc2[nH]c1=O,> 100 µg/mL,–
O=C(c1ccccc1)c1cc2cc([N+](=O)[O-])ccc2oc1=O,50 µg/mL,–
CC1(C)CC(=O)C2=C(C1)Oc1ccccc1C2c1c[nH]c2ccccc12 (stereo unspecified),50 µg/mL,–
CC1(C)CC(=O)C2=C(C1)Oc1c(O)cccc1C2c1c[nH]c2ccccc12 (stereo unspecified),100 µg/mL,–
COc1ccc2c(c1)OC1=C(C(=O)CC(C)(C)C1)C2c1c[nH]c2ccccc12 (stereo unspecified),100 µg/mL,–
COc1ccc(Br)c2c1OC1=C(C(=O)CC(C)(C)C1)C2c1c[nH]c2ccccc12 (stereo unspecified),> 100 µg/mL,–
CC1(C)CC(=O)C2=C(C1)Oc1c(cc(C(C)(C)C)cc1C(C)(C)C)C2c1c[nH]c2ccccc12 (stereo unspecified),> 100 µg/mL,–
CCN(CC)c1ccc2c(c1)OC1=C(C(=O)CC(C)(C)C1)C2c1c[nH]c2ccccc12 (stereo unspecified),> 100 µg/mL,–
CC1(C)CC(=O)C2=C(C1)Oc1ccc(Cl)cc1C2c1c(C(=O)O)[nH]c2ccccc12 (stereo unspecified),100 µg/mL,–
CC1(C)CC(=O)C2=C(C1)Oc1ccc3ccccc3c1C2c1c[nH]c2ccccc12 (stereo unspecified),25 µg/mL,–
O=C1CCCC2=C1C(c1c[nH]c3ccccc13)c1ccccc1O2 (stereo unspecified),> 100 µg/mL,–
O=C1CCCC2=C1C(c1c[nH]c3ccccc13)c1ccc(O)cc1O2 (stereo unspecified),> 100 µg/mL,–

SMILES,MIC [1],MIC [2]
COc1ccc2c(c1)OC1=C(C(=O)CCC1)C2c1c[nH]c2ccccc12 (stereo unspecified),> 100 µg/mL,–
O=C1CCCC2=C1C(c1c[nH]c3ccccc13)c1cc(Cl)ccc1O2 (stereo unspecified),50 µg/mL,–
O=C1CCCC2=C1C(c1c[nH]c3ccccc13)c1cc(Br)ccc1O2 (stereo unspecified),50 µg/mL,–
COc1ccc2c(c1)C(c1c[nH]c3ccccc13)C1=C(CCCC1=O)O2 (stereo unspecified),100 µg/mL,–
O=C1CCCC2=C1C(c1c[nH]c3ccccc13)c1cccc(O)c1O2 (stereo unspecified),> 100 µg/mL,–
COc1ccc(Br)c2c1OC1=C(C(=O)CCC1)C2c1c[nH]c2ccccc12 (stereo unspecified),> 100 µg/mL,–
COc1ccc(Br)c2c1OC1=C(C(=O)CC(C)(C)C1)C2n1nnc2ccccc21 (stereo unspecified),> 100 µg/mL,–
CC1(C)CC(=O)C2=C(C1)Oc1ccc(Br)cc1C2n1nnc2ccccc21 (stereo unspecified),> 100 µg/mL,–
CC1(C)CC(=O)C2=C(C1)Oc1c(O)cccc1C2n1nnc2ccccc21 (stereo unspecified),> 100 µg/mL,–
O=C1CCCC2=C1C(n1nnc3ccccc31)c1cc(Cl)ccc1O2 (stereo unspecified),> 100 µg/mL,–
O=C1CCCC2=C1C(n1nnc3ccccc31)c1cc(Br)ccc1O2 (stereo unspecified),> 100 µg/mL,–
COc1ccc2c(c1)C(n1nnc3ccccc31)C1=C(CCCC1=O)O2 (stereo unspecified),> 100 µg/mL,–
COc1ccc(Br)c2c1OC1=C(C(=O)CCC1)C2n1nnc2ccccc21 (stereo unspecified),> 100 µg/mL,–
CN1C(=O)C(C2C3=C(CC(C)(C)CC3=O)Oc3ccccc32)C(=O)N(C)C1=O (stereo unspecified),> 100 µg/mL,–
CN1C(=O)C(C2C3=C(CC(C)(C)CC3=O)Oc3ccc(Cl)cc32)C(=O)N(C)C1=O (stereo unspecified),> 100 µg/mL,–
CN1C(=O)C(C2C3=C(CC(C)(C)CC3=O)Oc3ccc(Br)cc32)C(=O)N(C)C1=O (stereo unspecified),> 100 µg/mL,–
COc1ccc2c(c1)C(C1C(=O)N(C)C(=O)N(C)C1=O)C1=C(CC(C)(C)CC1=O)O2 (stereo unspecified),> 100 µg/mL,–
CN1C(=O)C(C2C3=C(CC(C)(C)CC3=O)Oc3ccc([N+](=O)[O-])cc32)C(=O)N(C)C1=O (stereo unspecified),> 100 µg/mL,–
CN1C(=O)C(C2C3=C(CCCC3=O)Oc3ccc(Cl)cc32)C(=O)N(C)C1=O (stereo unspecified),> 100 µg/mL,–
CN1C(=O)C(C2C3=C(CCCC3=O)Oc3ccc(Br)cc32)C(=O)N(C)C1=O (stereo unspecified),> 100 µg/mL,–
CN1C(=O)C(C2C3=C(CCCC3=O)Oc3ccc([N+](=O)[O-])cc32)C(=O)N(C)C1=O (stereo unspecified),> 100 µg/mL,–

SMILES,MIC [1],MIC [2]
COc1ccc2c(c1)C(C1=C(O)CCCC1=O)C1=C(CCCC1=O)O2 (stereo unspecified),> 100 µg/mL,–
COC(=O)C1=C(C)Oc2c(cc(C(C)(C)C)cc2C(C)(C)C)[C@@H]1[C@H](C(C)=O)C(=O)OC,> 100 µg/mL,–
COC(=O)C1=C(C)Oc2ccc(Cl)cc2[C@@H]1[C@H](C(C)=O)C(=O)OC,> 100 µg/mL,–
COC(=O)C1=C(C)Oc2ccc(Br)cc2[C@@H]1[C@H](C(C)=O)C(=O)OC,> 100 µg/mL,–
COC(=O)C1=C(C)Oc2ccc(OC)cc2[C@@H]1[C@H](C(C)=O)C(=O)OC,> 100 µg/mL,–
COC(=O)C1=C(C)Oc2c(O)cccc2[C@@H]1[C@H](C(C)=O)C(=O)OC,> 100 µg/mL,–
O=C(O)CC[N+](=O)[O-],50 µg/mL,12.5 µg/mL
O=C(c1ccccc1)c1cc2ccccc2oc1=O,50 µg/mL,–
CC(=O)c1cc2cc(Br)ccc2oc1=O,> 100 µg/mL,–
CCC(N)C(=O)O (racemic),> 100 µg/mL,–
C[C@@H]1[C@H](O)[C@@H](C)/C=C/C=C/C=C/C=C/C=C/C=C/C=C/[C@H](O[C@@H]2O[C@H](C)[C@@H](O)[C@H](N)[C@@H]2O)C[C@@H]2O[C@](O)(C[C@@H](O)C[C@@H](O)[C@H](O)CC[C@@H](O)C[C@@H](O)CC(=O)O[C@H]1C)C[C@H](O)[C@H]2C(=O)O [AMPHOTERICIN B],> 100 µg/mL,–
O=C(OC[C@@H](O)[C@@H](O)COC(=O)/C(Cc1ccc(O)cc1)=N\O)/C(Cc1ccc(O)cc1)=N\O [ASPERGILLUSOL A],> 100 µg/mL,–
COC(=O)[C@]1(Cc2ccc3c(c2)C[C@H](O)C(C)(C)O3)OC(=O)C(O)=C1c1ccc(O)cc1 [BUTYROLACTONE V],> 100 µg/mL,–
Cc1cc(O)c2c(c1O)C(=O)c1cc(O)cc(O)c1C2=O [CATENARIN],100 µg/mL,–
O=C1C[C@H]2SS[C@@]34C[C@@H]1[C@@H]([C@H]2O)N3C(=O)[C@@]12C[C@H]3C(=O)C[C@@H](S1)[C@H](O)[C@H]3N2C4=O [EPICOCCIN A],> 100 µg/mL,> 100 µg/mL
O=c1cc(CO)occ1O [KOJIC ACID],> 100 µg/mL,–
COc1cc(O)cc2c1C(=O)c1c(O)cc(C)cc1C2=O [QUESTIN],50 µg/mL,–
COC(=O)[C@@]12Oc3ccc(-c4ccc5c(c4O)C(O)C4=C(O)C[C@H](C)[C@@H](O)[C@]4(C(=O)OC)O5)c(O)c3C(=O)C1=C(O)C[C@H](C)[C@H]2O (stereo partly specified) [SECALONIC ACID D],> 100 µg/mL,–
NCCS(=O)(=O)O [TAURINE],> 100 µg/mL,–
